According to US10240124B2, “Cell culture substrate comprising a laminin and a cadherin” (BioLamina AB, priority 2011, dated 2019):

Legend:
[1] = system: myosin light chain (MLC); assay: Western blot of phosphorylated myosin light chain; assay type: cell-based, human; details: one and six hours after plating, FIG. 12 and 13
Procedure: HS 181 cells were trypsinized into single cell suspension as described above. For inhibition experiments, the cells were kept in O3 medium with blocking antibodies or pathway inhibitors for 30 minutes and then 450K cells were plated on 35 mm dishes precoated with the appropriate matrix coating. For other experiments, same number of cells was plated directly after trypsinization. […] After two washings in ice-cold PBS, the plates with cells were snap frozen in liquid nitrogen and stored at −80° C. To prepare samples for western blots and ELISA, the plates were slowly thawed and kept on ice with 100-150 μl of lysis buffer (50 mM Tris-HCl, pH7.5, 150 mM NaCl, 0.5% deoxycholate, 0.5% SDS, 1% Triton X-100, 1% Igepal, Complete™ (Roche) and Phospho-Stop™ (Roche)) on top. Then, the cells were scraped, pipetted and sheared through a 27 G ¾″ needle. After that, the cell pellets were clarified by centrifugation at 16,100 rcf for 15 minutes at 4° C. For western blots, 4-12% gradient gels were used for SDS electrophoresis and the proteins were transferred to PVDF membranes. The membrane was hybridized with the antibody of interest according to the manufacturer's instructions. […] For the densitometry analysis the films were scanned at 2,400 dpi and analyzed by the Chemilmager5500 program (1 D-Multi Line densitometry mode). […]

[2] = system: hES cells; assay: Cell adhesion assay, 1 hour (Example 2); assay type: cell-based, human; details: compared with Matrigel or LN-111, not shown
Procedure: Tissue cell culture plates were coated overnight at 4° C. with sterile solutions of the ECM proteins, such as human recombinant LN-521, all at a concentration of 30 μg/ml (5 μg/cm^2). Control plates were coated with Matrigel according to the STEMCELL Technologies' instructions. Prior to use, dishes were pre-warmed in an incubator for one hour after which prewarmed O3 medium was added without additional washing of the dish. After applying a fresh LN-521 solution to a new dish, the remaining LN-521 solution could be used at least once more. All the adhesion, survival, and inhibition of survival experiments were carried out using fresh coating materials.
(§1) Briefly, 96-well plates were coated by extracellular matrix proteins as described above and blocked by O3 medium containing bovine serum albumin. The ES cells were plated at cell density of 50,000 cells/cm^2 onto extracellular matrix-coated plates and left to adhere for 1 hour in a cell incubator. After that the plates were washed 3 times with the medium to remove the non-adherent cells, and then the adherent cells were fixed for 20 minutes by 5% glutaraldehyde, stained by 0.1% Crystal Violet. (Kebo Lab, Spanga, Sweden, http://www.kebolab.se). After one hour and 3 washes with water, Crystal Violet was extracted with 10% acetic acid and quantified by measuring optical density at 570 nm. All the experiments were performed in quadruplicate.

[3] = system: hES cells; assay: Cell survival assay, 24 hours (Example 2); assay type: cell-based, human
Procedure: as §1
The survival assay was performed as described for the cell adhesion assay above, except that the cells were left in the cell incubator for 24 hours. For inhibition of survival assay, the cells were kept in a medium with function blocking antibodies at the concentrations recommended by the manufacturer or pathway inhibitors at concentrations indicated in the text for 30 minutes, and then plated on the coated dishes. All the experiments were performed in quadruplicate.
Pluripotent hES cells express α1, α5, β1, β2 and γ1 laminin chains. To compare the adhesion and clonal survival of hES cells plated from single cell suspension to different coating substrata, hES cells growing as monolayers on LN-511 or as clusters on a feeder layer were trypsinized into single cell suspension in O3 medium and plated on cell culture dishes coated with Matrigel, LN-111, LN-511, LN-521 or a mixture of LN-511 and LN-521, in the absence or presence of a ROCK inhibitor (Y-27632) and analyzed after 24 hours.

[4] = system: human embryonic stem cells; assay: Survival of hES cells plated in single cell suspension on precoated dishes (description); assay type: cell-based; details: O3 medium, 30 Kcells/cm^2
Excerpt: In other aspects, the present disclosure provides a new material, isolated laminin-521, which permits human embryonic stem cell survival after dissociation into single cell suspension. The stem cells were dissociated into single cell suspension by Trypsin-EDTA treatment, pelleted by centrifugation, resuspended into O3 medium, filtered through a 40 μm sieve, and plated at a density of 30 Kcells/cm^2 on cell culture dishes precoated by either isolated laminin-521, laminin-511, or Matrigel. After one day in culture, the cells plated on Matrigel died, as is known in the art.

[5] = system: Human ES cells; assay: Expansion of hES cells on r-laminin-521 with single cell dissociation passaging (Example 1); assay type: cell-based
Excerpt: In further aspects, the present disclosure provides a method to expand human embryonic stem cells in pluripotent state. It has been shown that human embryonic stem cells plated in single cell suspension on laminin-521 survived and proliferated at a higher rate than that of classical methods known in the art. After 3 passages (1 month) the cells passaged in a single cell suspension underwent the same number of cell divisions as that of cell cultures passaged in pieces on Matrigel after 20 passages (3 months). Therefore, the new method was advantageous in terms of time and labor, which may provide significant economical profits.
Human ES cells were cultured on r-laminin-521-coated laboratory dishes in chemically defined O3 medium (described in Rodin et al., Nature Biotechnol., vol. 28, pp. 611-615 (2010)) at 37° C. in 5% CO2. Cells were routinely passed once every 10-12 days by exposure to Trypsin-EDTA solution (GIBCO Invitrogen) for 5 minutes at 37° C. They were then gently pipetted to break into single-cell suspension and defined trypsin inhibitor (GIBCO Invitrogen) was added. The cell suspension was centrifuged […], the supernatant discarded, the cell pellet resuspended in prewarmed O3 medium, and cells were then passed through a 40 μm sieve. After that cells were plated on new r-laminin-521-coated dishes at a concentration 30 Kcells/cm^2 (1:25-1:30 split ratio). Cells were fed once a day with fresh medium prewarmed in an incubator for 1 hour, except for the first day after a passage, when only a few drops of fresh medium were added. Control cells of the same line were cultured on Matrigel (BD Biosciences) in O3 medium as described in Rodin et al., Nature Biotechnol., vol. 28, pp. 611-615 (2010). Control cells were passaged in pieces.

## LN-521: protein formed by joining α5, β2 and γ1 laminin chains; human recombinant, produced in HEK293 cells
[1]
  phosphorylation of MLC compared with cells on Matrigel and LN-111: even higher
[2]
  spreading of the cells after one hour: clearly better
[3]; 40,000 cells per 1 cm^2, 10 μM Y-27632
  survival of Y-27632 treated human ES cells compared with Matrigel: survived better
[3]; O3 medium
  survival after 24 hours relative to LN-511: three times higher
  survival after 24 hours relative to Matrigel: approximately 20 times
[3]; O3 medium, absence of ROCK inhibitor
  survival of hES cells 24 hours after plating from single cell suspension: did so as single cells
[3]; exogenous bFGF removed from the O3 medium
  survival relative to Matrigel without exogenous bFGF: 20 times
[3]; no bFGF, LiCl, GABA, pipecolic acid, TGFβ
  survival 24 hours after plating in medium lacking all growth factors of the TeSR1 formulation: survived
[4]
  survival of human embryonic stem cells after one day in culture: survived and started to proliferate
[5]; 1 month
  passages in single cell suspension giving the same number of cell divisions as cultures passaged in pieces on Matrigel after 20 passages (3 months): 3 passages
[5]; 1 month, FIG. 8
  passages to the same number of cell doublings as stem cells after 20 passages (100 days) by conventional methods: 3 passages
[5]; FIG. 8
  increase in the number of cells versus time compared with Matrigel: much faster rate
[5]; plated in single cell suspension
  proliferation rate compared with classical methods: higher rate
[5]; single cell passaging every 10-12 days, 1:25 to 1:30, 3 months
  passages of robust proliferation at a stable and high rate: at least 9 passages
